The values that follow come from US7291456B2, “Method for determining differences in molecular interactions and for screening a combinatorial library” (The Regents of the University of California, priority 2002, dated 2007).

In the assay the test system is human plasma. The assay can be described thus: One-bead-one-compound cXXXXXc peptide library screening, biotinylated serum (first mixture) then plasma (target mixture), BCIP staining and (B-A)/A image analysis. Type of assay: binding. The conditions noted are these: 4 μg biotinylated serum, then 4 μg biotinylated plasma, 1 hour each at 23° C., sequence by automated peptide sequencing. From the text:
General Method. The two mixtures of molecules to be compared were human plasma, referred to as “the target mixture,” and human serum, referred to as “the first mixture.” Both the plasma and serum were biotinylated with EZ-Link™ Sulfo-NHS-LC-Biotin from Pierce. Bead libraries were generated on TenteGel from Rapp Polymere. Amino acids used in bead library synthesis were from Synpep. Bead library screenings were done in disposable polypropylene columns from Perkin Elmer Life Sciences. All buffer reagents were from Sigma unless otherwise noted. PBS, TBS and BCIP buffers were as described in Lam, Kit S. and Michal Lebl, “Synthesis of a one-bead one-compound combinatorial peptide library,” Methods in Molecular Biology, vol. 87, Combinatorial Peptide Library Protocols. Edited by Shmuel Cabilly (Humana Press: 1997), 1-6. Bead staining utilized BCIP from Bio Synth AG which was hydrolyzed with streptavidin-alkaline phosphatase conjugate from Zymed. Bead immobilization was done in SeaPlaque agarose from Bio Wittaker Molecular Applications in Omni tray lids from Nunc/Nalgene. Scanned images were generated on a flatbed transparency scanner from Umax. Computer imaging was accomplished with Adobe Photoshop and compiler software was from Metrowerks. Amino acid sequencing was done on an Applied Biosystems Procise 494 Protein Sequencer.
Library Synthesis. “One-bead-one-compound” cXXXXXc peptide libraries were synthesized essentially as described (Lam and Lebl, Methods in Molecular Biology, vol. 87) using the “split synthesis approach,” where “X” denotes any L-amino acid except for cysteine, arginine, and lysine, and “c” is D-cysteine. TenteGel was used as a solid support and standard Fmoc chemistry was used for the solid phase peptide synthesis reactions. (Stewart and Young 1984. Solid-Phase Peptide Synthesis. Pierce Chemical Co. Atherton, E. and R. C. Sheppard. 1989. Solid Phase Peptide Synthesis: A Practical Approach. Practical Approach Series.)
Extract Preparation and Biotinlation. Human plasma and serum were prepared by the collection of human blood into stoppered vacuum tubes in the presence of Na-heparin as an anti-coagulant for plasma and in the absence of Na-heparin for serum. Blood was allowed to clot in the tubes for 25 minutes after which the top layer of […] was collected. Na-heparin was added to the serum to equalize the amount of Na-heparin in plasma and serum after which both samples were centrifuged at 1000 rpm for 20 minutes in a Sorvall SS34 centrifuge rotor. After centrifugation, samples were aliquoted, dialyzed against PBS for four hours at 4° C., quantitated and stored frozen at −80° C. The concentrations of the plasma and serum protein extracts after dialysis were 66.5 and 57.8 mg/ml, respectively.
Plasma and serum were tagged using biotinylation where biotin was the label and streptavidin alkaline phosphatase conjugate was the label binder. Biotinylation was performed according to the manufacturer's instructions. About 0.2 mg of protein was incubated in PBS with a 20-fold molar excess of sulfo-NHS-LC-biotin for 30 minutes at 23° C. The reaction was quenched by the addition of Tris-HCl pH 7.9 to 100 mM. For calculations of molarity, the average molecular weight of the proteins in the plasma and serum solutions was assumed to be 50 kD.
Library Screening. Four experiments were conducted. On average, 250,000 “one-bead-one-compound” beads were screened in each experiment. All bead reactions were performed in 1.5 ml polypropylene disposable micro-columns with inside dimensions of 37 mm×6 mm. Unless otherwise noted, all bead reactions were incubated on a Lab quake bench top rotator (Barnstead/Thermolyne) for 1 hour at 23° C. Bead libraries were stored in PBS with 0.05% sodium-azide. All incubation buffers and components were thoroughly mixed before addition to the column containing the bead library. […]
cAHVWHc: the “ligands identified on true positive beads (beads that bound molecules essentially unique to the plasma)” value is on record as “identified”. For cHVHPWc the value was “identified”. For cNLTHIc the value was “identified”. cMHGHFc: the “ligands identified on true positive beads (beads that bound molecules essentially unique to the plasma)” value is “identified”.

Turning to cHTLHQc, the “ligands identified on true positive beads (beads that bound molecules essentially unique to the plasma)” value was “identified”. For cPFHHSc the value was “identified”; for cHYQTGc, “identified”. cGIHYLc: the “ligands identified on true positive beads (beads that bound molecules essentially unique to the plasma)” value is on record as “identified”.

For the substance cHGHTIc, the “ligands identified on true positive beads (beads that bound molecules essentially unique to the plasma)” value is “identified”.

For the substance cFHNNHc, the “ligands identified on true positive beads (beads that bound molecules essentially unique to the plasma)” value was “identified”. For cHYHVSc the value was “identified”; for cYGHFSc, “identified”.
